Test results: ChEMBL document CHEMBL6178019, “Discovery of CYP1A1 Inhibitors for Host-Directed Therapy against Sepsis” (J Med Chem, 2025)
Active and inactive are the calls of the source. No cut-off for these calls is given here.

Columns and labels:
[1] = target: T1, CYP1A1 (Homo sapiens, UniProt P04798); test: Inhibition of CYP1A1 in human Caco-2 cells assessed as relative activity by measuring fold change at 500 nM incubated for 12 hrs by EROD assay relative to control; format: cell-based; conditions: read-out: FC
T1 sequence (P04798 whole entry): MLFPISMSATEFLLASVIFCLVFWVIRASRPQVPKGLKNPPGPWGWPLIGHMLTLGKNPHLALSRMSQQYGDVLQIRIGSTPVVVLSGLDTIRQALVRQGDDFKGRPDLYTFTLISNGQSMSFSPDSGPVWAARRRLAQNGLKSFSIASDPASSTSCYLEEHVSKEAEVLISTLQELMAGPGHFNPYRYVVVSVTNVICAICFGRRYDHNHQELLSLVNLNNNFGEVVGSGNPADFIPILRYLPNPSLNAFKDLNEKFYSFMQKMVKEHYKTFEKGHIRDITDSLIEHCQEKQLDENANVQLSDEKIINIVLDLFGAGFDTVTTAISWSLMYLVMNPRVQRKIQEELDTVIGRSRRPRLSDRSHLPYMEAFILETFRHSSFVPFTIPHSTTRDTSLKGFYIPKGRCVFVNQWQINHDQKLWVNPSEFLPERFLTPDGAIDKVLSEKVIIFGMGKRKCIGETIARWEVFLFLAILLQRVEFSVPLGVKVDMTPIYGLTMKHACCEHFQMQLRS

[2] = target: T2, Cytochrome P450 1A1 (Homo sapiens, UniProt P04798); test: Inhibition of CYP1A1 in human Caco-2 cells assessed as relative activity by measuring fold change at 5.0 uM incubated for 12 hrs by EROD assay relative to control; format: cell-based; conditions: caco-2, 12 h
T2 sequence (P04798 whole entry): T1 sequence (P04798 whole entry)

[3] = target: T3, CYP1A1 (Mus musculus, UniProt P00184); test: Inhibition of CYP1A1 in mouse RAW264.7 cells assessed as relative activity by measuring fold change at 5 uM incubated for 12 hrs by EROD assay relative to control; format: cell-based; conditions: read-out: FC
T3 sequence (P00184 whole entry): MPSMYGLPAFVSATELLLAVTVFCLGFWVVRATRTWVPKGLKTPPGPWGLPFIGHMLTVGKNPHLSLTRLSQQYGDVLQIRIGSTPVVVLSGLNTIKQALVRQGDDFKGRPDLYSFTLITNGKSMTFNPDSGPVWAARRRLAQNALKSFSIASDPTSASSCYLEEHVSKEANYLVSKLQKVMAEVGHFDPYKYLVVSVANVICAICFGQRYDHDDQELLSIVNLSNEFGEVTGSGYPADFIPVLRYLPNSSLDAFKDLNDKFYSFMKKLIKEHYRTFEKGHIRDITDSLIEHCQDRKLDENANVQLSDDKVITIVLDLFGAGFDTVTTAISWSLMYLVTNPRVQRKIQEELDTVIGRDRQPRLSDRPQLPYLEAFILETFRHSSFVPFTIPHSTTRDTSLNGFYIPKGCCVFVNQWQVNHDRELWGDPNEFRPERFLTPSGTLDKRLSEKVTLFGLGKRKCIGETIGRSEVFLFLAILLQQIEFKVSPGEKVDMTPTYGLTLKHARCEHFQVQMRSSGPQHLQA

[4] = Toxicity in male C57BL/6 mouse assessed as effect on blood urea nitrogen level in serum up to 100 mg/kg, ip measured after 12 hrs; format: organism-based; conditions: in vivo
[5] = tested on: Pseudomonas aeruginosa; test: Antibacterial activity against Pseudomonas aeruginosa infected in C57BL/6 mouse assessed as increase in survival at 25 mg/kg, ip pretreated for 12 hrs followed by bacterial infection and measured after 60 hrs by Kaplan Meier survival analysis; format: functional, organism-based; conditions: time 72.0 hrs
[6] = tested on: Staphylococcus aureus; test: Antibacterial activity against methicillin-resistant Staphylococcus aureus infected in CYP1A1 knockout mouse model assessed as increase in survival rate at 25 mg/kg, ip pretreated for 12 hrs followed by bacterial infection and measured after 60 hrs by Kaplan Meier survival analysis; format: functional, organism-based; conditions: time 72.0 hrs
[7] = tested on: Staphylococcus aureus; test: Antibacterial activity against methicillin-resistant Staphylococcus aureus infected in C57BL/6 mouse assessed as reversal of blood urea nitrogen level in serum at 25 mg/kg, ip administered for 12 hrs by absorbance based microplate reader; format: functional, organism-based
[8] = tested on: Mus musculus; test: Effect on CYP1A1 protein expression in C57BL/6 mouse liver infected with methicillin-resistant Staphylococcus aureus at 25 mg/kg, ip administered for 12 hrs by Western blot analysis; format: functional, organism-based
[9] = tested on: Acinetobacter baumannii; test: Antibacterial activity against Acinetobacter baumannii assessed as inhibition of bacterial growth at 0.02 to 2.5 mg/ml; format: functional, organism-based; conditions: dose 0.02-2.5 mg/ml
[10] = tested on: Acinetobacter baumannii; test: Antibacterial activity against Acinetobacter baumannii infected in C57BL/6 mouse model assessed as reduction in bacterial load in peritoneal lavage fluid at 25 mg/kg, ip pretreated for 12 hrs followed by bacterial infection and measured after 24 hrs relative to control; format: functional; set-up: scale not given: the % may be the effect or the level left; conditions: time 36 hrs
[11] = tested on: RAW264.7; test: Induction of phagocytosis in mouse RAW264.7 cells assessed as upregulation of CD68 mRNA expression by qRT-PCR analysis; format: functional, cell-based
[12] = tested on: RAW264.7; test: Induction of phagocytosis in mouse RAW264.7 cells at 5 uM incubated for 12 hrs by flow cytometric analysis; format: functional, cell-based
[13] = tested on: THP-1; test: Induction of phagocytosis in human THP-1-derived macrophages infected with hexidine iodide labelled methicillin-R Staphylococcus aureus at 5 uM preincubated for 12 hrs followed by bacterial infection and measured after 1 hrs by fluorescence based confocal microscopic analysis; format: functional, cell-based; conditions: time 13.0 hrs
[14] = tested on: RAW264.7; test: Induction of phagocytosis in zymosan A stimulated mouse RAW264.7 cells assessed as upregulation of CD32 mRNA expression at 5.0 uM incubated for 12 hrs by qRT-PCR analysis; format: functional, cell-based
[15] = tested on: RAW264.7; test: Induction of phagocytosis in zymosan A stimulated mouse RAW264.7 cells assessed as upregulation of CD68 mRNA expression at 5.0 uM incubated for 12 hrs by qRT-PCR analysis; format: functional, cell-based
[16] = tested on: Escherichia coli; test: Antibacterial activity Escherichia coli infected in C57BL/6 mouse model assessed as increase in survival rate at 25 mg/kg, ip incubated for 12 hrs followed by bacterial infection and measured after 100 hrs by Kaplan Meier survival analysis; format: functional, organism-based; conditions: time 112.0 hrs
[17] = target: T1, CYP1A1; test: Inhibition of CYP1A1 in human Caco-2 cells at 500 nM incubated for 12 hrs by EROD assay relative to control; format: cell-based
[18] = target: T3, CYP1A1; test: Inhibition of CYP1A1 in mouse RAW264.7 cells at 500 nM incubated for 12 hrs by EROD assay relative to control; format: cell-based

| Compound | fold induction at 12 h, 0.5 µM [1] | fold change (FC) [2] | fold induction at 12 h, 5 µM [3] | Activity [4] | Activity [5] | Activity [6] | Activity [7] | Activity [8] | Activity [9] | Activity [10] [%] | Activity [11] | Activity [12] | Activity [13] | Activity [14] | Activity [15] | Activity [16] | inhibition at 12 h, 0.5 µM [17] [%] | inhibition at 12 h, 0.5 µM [18] [%] |
| --- | --- | --- | --- | --- | --- | --- | --- | --- | --- | --- | --- | --- | --- | --- | --- | --- | --- | --- |
| C#Cc1ccccc1/C=C/C(=O)c1ccc2c(c1)n(C)c(=O)n2C | 0.06 | 0.01 | 0.03 | Non-toxic | Active | inactive | Active | inactive | Active | >70 | Active | Active | Active | Active | Active | Active | < 10 | < 10 |
| Cn1cc(/C=C/C(=O)c2ccc3c(c2)n(C)c(=O)n3C)c2ccccc21 | 0.25 | 0.09 | 0.25 | Non-toxic | Active | inactive | Active | inactive | Active | >70 | Active | Active | Active | Active | Active | Active |  |  |
